Experimental data: ChEMBL document CHEMBL4507263, “Data for DCP probe BAY-474” (2021)

Columns and labels:
[1] = molecular target: Cyclin-dependent kinase 2/cyclin E (Homo sapiens) (UniProt P24864+P24941+O96020); test: CDK2/cyclinE (h) Millipore kinase activity assay; format: protein-complex assay; details: Compound concentration 1.0 uM
[2] = molecular target: Cyclin-dependent kinase 3 (Homo sapiens) (UniProt Q00526); test: CDK3/cyclinE (h) Millipore kinase activity assay; details: Compound concentration 1.0 uM
Sequence of Cyclin-dependent kinase 3 (Homo sapiens) (Q00526 whole entry, looked up): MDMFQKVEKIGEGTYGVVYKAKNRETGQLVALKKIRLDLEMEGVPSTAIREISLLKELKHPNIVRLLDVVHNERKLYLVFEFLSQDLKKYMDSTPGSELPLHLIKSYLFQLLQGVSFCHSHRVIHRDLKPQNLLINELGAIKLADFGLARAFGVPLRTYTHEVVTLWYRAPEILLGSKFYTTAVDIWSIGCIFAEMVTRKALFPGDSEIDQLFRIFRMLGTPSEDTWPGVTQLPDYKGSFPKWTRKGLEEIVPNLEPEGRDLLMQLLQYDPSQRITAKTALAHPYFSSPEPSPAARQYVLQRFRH

[3] = molecular target: Serine/threonine-protein kinase MRCK beta (Homo sapiens) (UniProt Q9Y5S2); test: MRCKbeta (h) Millipore kinase activity assay; details: Compound concentration 1.0 uM
[4] = molecular target: Ribosomal protein S6 kinase alpha-4 (Homo sapiens) (UniProt O75676); test: MSK2 (h) Millipore kinase activity assay; details: Compound concentration 1.0 uM
[5] = molecular target: Serine/threonine-protein kinase PAK 3 (Homo sapiens) (UniProt O75914); test: PAK3 (h) Millipore kinase activity assay; details: Compound concentration 1.0 uM
[6] = molecular target: Platelet-derived growth factor receptor alpha (Homo sapiens) (UniProt P16234); test: PDGFRalpha (h) Millipore kinase activity assay; details: Compound concentration 1.0 uM
[7] = molecular target: Serine/threonine-protein kinase D1 (Homo sapiens) (UniProt Q15139); test: PKCmu (h) Millipore kinase activity assay; details: Compound concentration 1.0 uM
Sequence of Serine/threonine-protein kinase D1 (Homo sapiens) (Q15139 whole entry): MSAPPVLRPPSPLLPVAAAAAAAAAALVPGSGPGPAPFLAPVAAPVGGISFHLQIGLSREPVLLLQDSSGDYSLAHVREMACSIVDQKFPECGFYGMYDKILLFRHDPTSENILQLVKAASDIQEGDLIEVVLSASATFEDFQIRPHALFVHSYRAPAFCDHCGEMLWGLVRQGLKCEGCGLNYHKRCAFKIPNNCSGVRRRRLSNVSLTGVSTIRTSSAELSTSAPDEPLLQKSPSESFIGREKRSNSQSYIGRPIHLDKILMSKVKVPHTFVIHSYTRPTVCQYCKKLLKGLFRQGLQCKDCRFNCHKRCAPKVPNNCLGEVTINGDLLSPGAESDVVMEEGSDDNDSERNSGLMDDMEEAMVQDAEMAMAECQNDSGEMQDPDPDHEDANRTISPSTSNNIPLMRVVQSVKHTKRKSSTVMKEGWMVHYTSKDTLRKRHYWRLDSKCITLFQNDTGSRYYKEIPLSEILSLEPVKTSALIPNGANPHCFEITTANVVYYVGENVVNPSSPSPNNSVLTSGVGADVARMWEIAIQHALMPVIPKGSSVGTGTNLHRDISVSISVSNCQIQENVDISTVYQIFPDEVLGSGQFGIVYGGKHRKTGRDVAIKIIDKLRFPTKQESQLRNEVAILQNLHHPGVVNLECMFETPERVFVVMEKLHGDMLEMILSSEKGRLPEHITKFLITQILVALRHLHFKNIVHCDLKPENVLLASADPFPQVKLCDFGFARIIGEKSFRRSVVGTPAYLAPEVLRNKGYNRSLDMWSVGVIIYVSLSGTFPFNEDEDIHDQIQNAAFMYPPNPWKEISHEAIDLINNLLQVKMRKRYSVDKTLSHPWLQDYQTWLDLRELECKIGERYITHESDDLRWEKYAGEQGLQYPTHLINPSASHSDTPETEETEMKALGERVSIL

[8] = molecular target: MAP kinase-activated protein kinase 5 (Homo sapiens) (UniProt Q8IW41); test: PRAK (h) Millipore kinase activity assay; details: Compound concentration 1.0 uM
[9] = molecular target: Ribosomal protein S6 kinase alpha-2 (Homo sapiens) (UniProt Q15349); test: Rsk3 (h) Millipore kinase activity assay; details: Compound concentration 1.0 uM
[10] = molecular target: Melatonin receptor type 1A (Homo sapiens) (UniProt P48039); test: Inhibition of Melatonin MT1 at 10 µM in the Eurofins-Panlabs radioligand binding assay (Eurofins_assay_251600); parameters: ligand concentration 0.05 nM; details: Compound concentration 10.0 uM
Homo sapiens = species on record: Homo sapiens; test: Inhibition of Nicotinic Acetylcholine at compound concentration of 10.0 uM in the Eurofins-Panlabs radioligand binding assay (Eurofins_assay_258590); format: protein-complex assay; details: Compound concentration 10.0 uM
[11] = molecular target: Adenosine receptor A1 (Homo sapiens) (UniProt P30542); details: Compound concentration 10.0 uM
[12] = molecular target: Muscarinic acetylcholine receptor M3 (Homo sapiens) (UniProt P20309); details: Compound concentration 10.0 uM
[13] = molecular target: T1, 5-hydroxytryptamine receptor 1A (Homo sapiens) (UniProt P08908); details: Compound concentration 10.0 uM
T1 sequence (whole entry): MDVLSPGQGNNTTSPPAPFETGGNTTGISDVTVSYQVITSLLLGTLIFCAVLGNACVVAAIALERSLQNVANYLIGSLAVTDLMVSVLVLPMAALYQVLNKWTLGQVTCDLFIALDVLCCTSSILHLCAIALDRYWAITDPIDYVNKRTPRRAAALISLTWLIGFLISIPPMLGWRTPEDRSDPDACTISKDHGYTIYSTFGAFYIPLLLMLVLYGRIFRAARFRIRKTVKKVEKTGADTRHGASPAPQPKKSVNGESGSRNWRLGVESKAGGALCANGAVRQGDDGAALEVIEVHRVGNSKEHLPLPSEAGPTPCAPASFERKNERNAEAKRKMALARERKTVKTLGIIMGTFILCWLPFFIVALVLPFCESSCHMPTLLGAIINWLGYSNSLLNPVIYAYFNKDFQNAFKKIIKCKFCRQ

[14] = molecular target: Tyrosine-protein kinase ABL1 (Homo sapiens) (UniProt P00519); details: Compound concentration 1000.0 nM
[15] = molecular target: Atypical kinase COQ8A, mitochondrial (Homo sapiens) (UniProt Q8NI60); details: Compound concentration 1000.0 nM
Sequence of Atypical kinase COQ8A, mitochondrial (Homo sapiens) (Q8NI60 163-647 limits assumed): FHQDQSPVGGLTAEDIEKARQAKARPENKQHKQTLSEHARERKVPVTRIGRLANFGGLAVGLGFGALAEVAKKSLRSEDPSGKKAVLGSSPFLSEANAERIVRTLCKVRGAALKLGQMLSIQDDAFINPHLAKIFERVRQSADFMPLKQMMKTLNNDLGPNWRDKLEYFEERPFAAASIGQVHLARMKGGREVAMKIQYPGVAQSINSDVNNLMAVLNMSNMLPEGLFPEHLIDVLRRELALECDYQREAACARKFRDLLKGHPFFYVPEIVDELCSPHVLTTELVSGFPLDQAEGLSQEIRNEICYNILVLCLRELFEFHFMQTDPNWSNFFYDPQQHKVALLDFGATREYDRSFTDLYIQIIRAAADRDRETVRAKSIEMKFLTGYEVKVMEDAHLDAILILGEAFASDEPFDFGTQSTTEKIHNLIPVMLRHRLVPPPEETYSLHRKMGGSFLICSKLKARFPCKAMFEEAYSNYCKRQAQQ

[16] = molecular target: Cyclin-dependent kinase 4 (Homo sapiens) (UniProt P11802); details: Compound concentration 1000.0 nM
[17] = molecular target: Casein kinase I isoform alpha (Homo sapiens) (UniProt P48729); details: Compound concentration 1000.0 nM
[18] = molecular target: Casein kinase I isoform epsilon (Homo sapiens) (UniProt P49674); details: Compound concentration 1000.0 nM
[19] = molecular target: Dual specificity tyrosine-phosphorylation-regulated kinase 2 (Homo sapiens) (UniProt Q92630); details: Compound concentration 1000.0 nM
[20] = system: eIF-2-alpha kinase GCN2 (Homo sapiens), Q9P2K8 [S808G]; details: Compound concentration 1000.0 nM
Sequence of eIF-2-alpha kinase GCN2 (Homo sapiens), Q9P2K8 [S808G] (Q9P2K8 whole entry S808G): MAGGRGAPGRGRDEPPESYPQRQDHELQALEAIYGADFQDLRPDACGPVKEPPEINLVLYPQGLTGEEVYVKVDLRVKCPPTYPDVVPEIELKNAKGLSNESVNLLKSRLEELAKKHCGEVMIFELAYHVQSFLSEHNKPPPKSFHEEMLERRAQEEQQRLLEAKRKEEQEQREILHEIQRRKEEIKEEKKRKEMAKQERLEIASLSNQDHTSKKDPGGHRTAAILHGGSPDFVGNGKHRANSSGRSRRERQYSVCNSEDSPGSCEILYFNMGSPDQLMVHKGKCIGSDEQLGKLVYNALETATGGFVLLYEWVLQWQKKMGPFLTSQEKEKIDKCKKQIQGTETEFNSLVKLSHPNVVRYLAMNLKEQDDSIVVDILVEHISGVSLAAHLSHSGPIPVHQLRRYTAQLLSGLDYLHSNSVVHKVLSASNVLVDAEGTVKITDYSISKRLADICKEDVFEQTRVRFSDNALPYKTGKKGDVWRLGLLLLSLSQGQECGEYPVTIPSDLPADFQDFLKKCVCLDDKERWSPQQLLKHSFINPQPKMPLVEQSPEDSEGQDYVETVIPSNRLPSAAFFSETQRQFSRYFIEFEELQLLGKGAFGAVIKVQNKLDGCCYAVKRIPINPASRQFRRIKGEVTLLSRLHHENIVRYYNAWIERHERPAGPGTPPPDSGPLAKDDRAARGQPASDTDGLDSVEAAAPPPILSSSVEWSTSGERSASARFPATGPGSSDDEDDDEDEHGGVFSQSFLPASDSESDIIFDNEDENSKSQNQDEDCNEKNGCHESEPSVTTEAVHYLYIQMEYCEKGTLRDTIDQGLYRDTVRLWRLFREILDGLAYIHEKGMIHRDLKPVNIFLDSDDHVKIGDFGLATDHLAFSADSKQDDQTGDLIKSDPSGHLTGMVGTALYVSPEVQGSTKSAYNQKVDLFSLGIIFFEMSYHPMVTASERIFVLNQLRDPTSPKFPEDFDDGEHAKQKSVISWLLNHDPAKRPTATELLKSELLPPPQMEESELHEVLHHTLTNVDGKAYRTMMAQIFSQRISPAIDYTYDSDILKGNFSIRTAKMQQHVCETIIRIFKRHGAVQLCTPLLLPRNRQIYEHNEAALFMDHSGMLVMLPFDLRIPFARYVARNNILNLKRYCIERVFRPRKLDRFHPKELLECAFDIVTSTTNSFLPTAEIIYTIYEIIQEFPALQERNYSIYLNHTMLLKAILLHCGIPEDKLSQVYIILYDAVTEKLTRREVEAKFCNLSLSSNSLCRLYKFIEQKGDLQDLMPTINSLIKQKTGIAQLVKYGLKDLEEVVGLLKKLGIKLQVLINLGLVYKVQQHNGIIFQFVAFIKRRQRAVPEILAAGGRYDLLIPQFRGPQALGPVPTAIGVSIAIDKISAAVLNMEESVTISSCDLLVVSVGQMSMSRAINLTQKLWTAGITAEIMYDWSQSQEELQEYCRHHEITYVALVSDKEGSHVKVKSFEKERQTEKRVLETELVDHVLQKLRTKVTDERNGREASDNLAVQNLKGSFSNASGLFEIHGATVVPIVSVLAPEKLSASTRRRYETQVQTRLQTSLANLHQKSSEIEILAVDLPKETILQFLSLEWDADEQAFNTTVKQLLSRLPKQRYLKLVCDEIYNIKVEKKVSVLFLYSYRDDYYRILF

[21] = molecular target: Insulin receptor (Homo sapiens) (UniProt P06213); details: Compound concentration 1000.0 nM
Sequence of Insulin receptor (Homo sapiens) (P06213 28-758 limits assumed): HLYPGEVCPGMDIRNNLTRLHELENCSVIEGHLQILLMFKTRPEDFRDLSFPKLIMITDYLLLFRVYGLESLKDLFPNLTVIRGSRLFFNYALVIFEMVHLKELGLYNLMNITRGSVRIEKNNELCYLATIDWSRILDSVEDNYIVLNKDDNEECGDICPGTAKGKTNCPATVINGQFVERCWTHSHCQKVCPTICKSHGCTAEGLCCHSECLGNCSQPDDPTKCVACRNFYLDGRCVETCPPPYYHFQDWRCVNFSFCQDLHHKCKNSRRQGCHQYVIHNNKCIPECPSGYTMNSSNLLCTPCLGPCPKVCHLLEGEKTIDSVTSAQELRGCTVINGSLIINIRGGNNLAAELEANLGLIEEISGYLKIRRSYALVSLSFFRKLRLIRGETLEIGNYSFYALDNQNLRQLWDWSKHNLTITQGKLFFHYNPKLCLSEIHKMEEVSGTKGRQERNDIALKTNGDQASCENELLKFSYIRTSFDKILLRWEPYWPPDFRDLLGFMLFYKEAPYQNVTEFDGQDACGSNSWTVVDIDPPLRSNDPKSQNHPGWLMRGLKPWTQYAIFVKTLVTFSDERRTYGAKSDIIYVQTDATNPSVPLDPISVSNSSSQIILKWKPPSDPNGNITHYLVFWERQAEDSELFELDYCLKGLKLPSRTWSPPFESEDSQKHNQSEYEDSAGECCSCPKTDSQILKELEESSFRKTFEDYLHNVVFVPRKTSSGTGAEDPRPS
Sequence of Insulin receptor (Homo sapiens) (P06213 763-1382 limits assumed): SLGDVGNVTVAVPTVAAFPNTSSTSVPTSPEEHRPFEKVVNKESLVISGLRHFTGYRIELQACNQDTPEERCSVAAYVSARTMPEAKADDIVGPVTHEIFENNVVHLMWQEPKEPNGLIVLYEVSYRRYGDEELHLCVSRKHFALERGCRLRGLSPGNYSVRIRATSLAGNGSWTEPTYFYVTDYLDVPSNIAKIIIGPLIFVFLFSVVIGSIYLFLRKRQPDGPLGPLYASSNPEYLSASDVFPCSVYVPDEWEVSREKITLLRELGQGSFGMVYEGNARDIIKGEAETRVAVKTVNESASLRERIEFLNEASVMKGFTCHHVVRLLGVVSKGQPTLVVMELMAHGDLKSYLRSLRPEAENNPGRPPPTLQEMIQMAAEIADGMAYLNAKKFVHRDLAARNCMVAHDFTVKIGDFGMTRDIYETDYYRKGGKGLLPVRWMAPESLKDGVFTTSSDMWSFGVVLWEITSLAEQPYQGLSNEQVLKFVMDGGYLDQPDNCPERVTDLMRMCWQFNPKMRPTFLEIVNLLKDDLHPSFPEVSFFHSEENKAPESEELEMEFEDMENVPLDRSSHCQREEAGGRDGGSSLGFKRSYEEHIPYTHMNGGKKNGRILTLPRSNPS

[22] = molecular target: Tyrosine-protein kinase JAK3 (Homo sapiens) (UniProt P52333); details: Compound concentration 1000.0 nM
[23] = molecular target: Mast/stem cell growth factor receptor Kit (Homo sapiens) (UniProt P10721); details: Compound concentration 1000.0 nM
[24] = molecular target: Serine/threonine-protein kinase LATS2 (Homo sapiens) (UniProt Q9NRM7); details: Compound concentration 1000.0 nM
[25] = molecular target: Tyrosine-protein kinase Lck (Homo sapiens) (UniProt P06239); details: Compound concentration 1000.0 nM
[26] = molecular target: LIM domain kinase 2 (Homo sapiens) (UniProt P53671); details: Compound concentration 1000.0 nM
[27] = molecular target: Microtubule-associated serine/threonine-protein kinase 1 (Homo sapiens) (UniProt Q9Y2H9); details: Compound concentration 1000.0 nM
[28] = system: Hepatocyte growth factor receptor (Homo sapiens), P08581 [Y1235D]; details: Compound concentration 1000.0 nM
[29] = molecular target: Myosin light chain kinase 2, skeletal/cardiac muscle (Homo sapiens) (UniProt Q9H1R3); details: Compound concentration 1000.0 nM
[30] = molecular target: Serine/threonine-protein kinase NIM1 (Homo sapiens) (UniProt Q8IY84); details: Compound concentration 1000.0 nM
[31] = molecular target: Phosphatidylinositol 3-kinase C2 domain-containing subunit gamma (Homo sapiens) (UniProt O75747); details: Compound concentration 1000.0 nM
[32] = system: Phosphatidylinositol 4,5-bisphosphate 3-kinase catalytic subunit alpha isoform (Homo sapiens), P42336 [E542K]; details: Compound concentration 1000.0 nM
[33] = molecular target: Serine/threonine-protein kinase pim-3 (Homo sapiens) (UniProt Q86V86); details: Compound concentration 1000.0 nM
[34] = molecular target: Protein kinase C eta type (Homo sapiens) (UniProt P24723); details: Compound concentration 1000.0 nM
[35] = system: Proto-oncogene tyrosine-protein kinase receptor Ret (Homo sapiens), P07949 [M918T]; details: Compound concentration 1000.0 nM
[36] = molecular target: Rho-associated protein kinase 2 (Homo sapiens) (UniProt O75116); details: Compound concentration 1000.0 nM
[37] = molecular target: Ribosomal protein S6 kinase alpha-3 (Homo sapiens, UniProt P51812); details: Compound concentration 1000.0 nM
[38] = molecular target: 5-hydroxytryptamine receptor 1D (Homo sapiens) (UniProt P28221); details: Compound concentration 10.0 uM

CC1=C(C#N)C(c2ccc3[nH]nc(C)c3c2)C(C#N)=C(C)N1 [BAY-474]
inactive: inhibition [1] 9% | inhibition [2] -4% | inhibition [3] -7% | inhibition [4] -1% | inhibition [5] -8% | inhibition [6] -2% | inhibition [7] 15% | inhibition [8] 6% | inhibition [9] 51% | inhibition [10] 2% | inhibition (Homo sapiens) -1% | inhibition [11] -2% | inhibition [12] 2% | inhibition [13] -9%

CC1=C(C#N)[C@@H](c2ccc3[nH]nc(C)c3c2)C(C#N)=C(c2ccc(Cl)cc2)N1 [BAY-827]
inactive: residual activity [14] 82.9% | residual activity [15] 97.8% | residual activity [16] 100% | residual activity [17] 64.7% | residual activity [18] 91.7% | residual activity [19] 100% | residual activity [20] 89.9% | residual activity [21] 100% | residual activity [22] 100% | residual activity [23] 71.2% | residual activity [24] 100% | residual activity [25] 100% | residual activity [26] 91.1% | residual activity [27] 100% | residual activity [28] 52.6% | residual activity [29] 91.4% | residual activity [30] 100% | residual activity [31] 93.9% | residual activity [32] 78.6% | residual activity [33] 100% | residual activity [34] 96.1% | residual activity [35] 97.2% | residual activity [36] 91.9% | residual activity [37] 78.1% | inhibition [38] 4.2%
